For twelve compounds, IC50 results are on record in ChEMBL document CHEMBL4823309, “The Potential of c-KIT Kinase inhibitors in Cancer Treatment” (ACS Med Chem Lett, 2021).

SMILES strings stand for the structures.

The assay is described as follows: Inhibition of C-KIT V654A/560-576 deletion mutant in human GIST-430/654 cells assessed as reduction in c-Kit autophosphorylation at […] residue incubated for 45 mins by Luminex bead based assay. The settings on record: GIST-430/654, 0.75 h. It counts as cell-based.

For orientation: IC50 means the concentration that inhibits the measured activity by half.

Regarding `CNC1CN(c2ccn3c(-c4cc(NCc5ccc(-c6cnn(C)c6)cc5)ncn4)cnc3c2)C1`, the IC50 came to 0.14 µM.

For `COc1ccn2c(-c3cc(NCc4ccc(-c5cnn(C)n5)cc4)ncn3)cnc2c1`, the IC50 was determined as 0.078 µM.

Take `Cn1cc(-c2ccc(CNc3cc(-c4cnc5cc(OC6CCOC6)ccn45)ncn3)cc2)cn1` (configuration not stated): the IC50 stood at 0.27 µM.

For the compound `Cn1cc(-c2ccc(CNc3cc(-c4cnc5cc(OCCN6CCC[C@@H]7OCC[C@@H]76)ccn45)ncn3)cc2)cn1`, the IC50 was 0.1 µM.

On to `CN1CC(COc2ccn3c(-c4cc(NCc5ccc(-c6cnn(C)c6)cc5)ncn4)cnc3c2)C1`, for which the IC50 stood at 0.061 µM.

Consider `Cc1nc(-c2ccc(CNc3cc(-c4cnc5cc(OCCO)ccn45)ncn3)cc2)co1`, for which the IC50 worked out at 0.074 µM.

In the case of `Cn1cc(-c2ccc(CNc3cc(-c4cnc5cc(CCN6CCN(C7COC7)CC6)ccn45)ncn3)cc2)cn1`, the half-maximal inhibitory concentration (IC50) worked out at 0.33 µM.

For the compound `Cn1ncc(-c2ccc(CNc3cc(-c4cnc5cc(OCCCN6CCCC6)ccn45)ncn3)cc2)n1`, the IC50 stood at 0.045 µM.

Regarding `Cn1ncc(-c2ccc(CNc3cc(-c4cnc5cc(OCCN6CC7(COC7)C6)ccn45)ncn3)cc2)n1`, the IC50 came to 0.04 µM.

Regarding `COc1ccn2c(-c3cc(NCc4ccc(-c5cnn(C)c5)cc4)ncn3)cnc2c1`, the IC50 was found to be 0.055 µM.

Take `COCCN1CCC(COc2ccn3c(-c4cc(NCc5ccc(-c6cnn(C)n6)cc5)ncn4)cnc3c2)CC1`: the IC50 is 0.039 µM.

For `c1ccn2c(-c3cc(NCc4ccc(-n5cccn5)cc4)ncn3)cnc2c1`, the half-maximal inhibitory concentration (IC50) amounted to 0.19 µM.
